Test results as given in patent US20260109721A1, “IONIZABLE CATIONIC LIPIDS INCORPORATING SILICON: SYNTHESIS AND LNP FORMULATION” (priority 2023, published 2026).

Key:
Assay type in all cases: cell-based
HeLa cells [1] = assay: Cell viability assessment with resazurin assay (Method A); conditions: human
How it was run: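 Viability is given as percent of control metabolic activity: background-corrected resorufin fluorescence (ex 540, em 610 nm), with OptiMEM-only wells set to 100%. Resazurin at 0.025 mg/ml in DMEM/F12 with 10% FCS was applied to LNP-transfected HeLa cells for 50 min at 37 °C.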

HeLa cells [2] = assay: Transfection efficiency with GFP mRNA (Method B); conditions: 24 h, GFP fluorescence
Experimental: (§1) The synthesized lipids were tested in term of in vitro transfection efficacy and toxicity on HeLa cells. In order to perform the mentioned biological tests, appropriate LNPs had to be formulated from the synthesized lipids. The formulation technique was different in Method A and B. The particle size, polydispersity index (PDI) and zeta potential of resulting LNPs were determined by means of Dynamic Light Scattering technique (DLS). Prior to biological testing the encapsulation efficiency (EE) of the loaded LNPs was determined by using RiboGreen RNA assay. In case of Method A Luc mRNA while in case of Method B GFP mRNA was transfected into the cells. In parallel with the transfection experiments, toxicity of the investigated LNPs was determined, in case of Method A resazurin assay while in case of Method B MTT assay was used. Additionally, the toxicity of the lipids was investigated on HepG2 cells and IC50 values were determined.
In 1.5 mL eppendorf: • a) Place 2.9 uL of 0.33 ug/uL mRNA solution into Eppendorf tube • b) Add 1.94 μL of supplied ethanolic solution of tested lipid and immediately mix by working pipette up-and-down several times (work the solution up and down several times before transferring to saturate pipette tip with ethanol vapors) • c) Incubate for 15 minutes. • d) Add 536 μL of MEM. Mix the solution by vortexing. • e) Incubate for 30 minutes.
• MEM (Sigma, cat #M5650-500 mL) • Fetal Bovine Serum, FBS (Sigma, cat #F7524-500 mL) • Solutions of the formulations (see above) • Dilutor: 10 mL MEM+0,036 mL ethanol • Phosphate buffered saline, PBS
• 1. Fill the edge wells of a 96-well plate with 100 μL media. • 2. Plate 10,000 HeLa cells per well in 96 well plate. […] Total 60 wells should be seeded. Incubate in MEM+10% FBS at 37° C. in a humidified atmosphere with 5% CO2 for 24 h. • 3. Examine under the microscope. Confluency must be at or nearly 80%. • 4. Gently remove the media (aspirate). Place 50 μL of the following formulations: • a) 6 wells with dilutor—negative control • b) 6 wells with Lipofectamine-50—positive control. • c) 6 wells with Lipofectamine-6—secondary positive control • d) 6 wells per formulations—test samples. • 5. Incubate plate for 1 hours at 37° C. • 6. Add 50 μL of MEM+20% FBS (which will become 10% upon dilution). • 7. Place plates into the incubator at 37° C. in a humidified atmosphere with 5% CO2 for 23 h (total 24 hours of incubation). • 8. After 24 h, aspirate the media without disturbing the cells. Gently wash cells with 100 μL of warm PBS. Aspirate PBS. • 9. Add 100 μL of fresh PBS into washed cells and read GFP fluorescence on the plate reader. • 10. This can be followed with viability assessment with the MTT assay. Cell Viability Assessment with MTT Assay (Method B)

HeLa cells [3] = assay: Cell viability assessment with MTT assay (Method B); conditions: 24 h
Experimental: as §1
• MEM (Sigma, cat #M5650-500 mL) • Fetal Bovine Serum, FBS (Sigma, cat #F7524-500 mL) • Thiazolyl Blue Tetrazolium Bromide, MTT (TCI Chemicals, cat #D0801-5G) • Solutions of the formulations (see “Preparation of GFP mRNA loaded LNP” protocol) • Dilutor: 10 mL MEM+0,036 mL ethanol • Phosphate buffered saline, PBS
• 1. Plate 10,000 HeLa cells per well in 96 well plate. […] Total 60 wells should be seeded. Incubate in MEM+10% FBS at 37° C. in a humidified atmosphere with 5% CO2 for 24 h. • 2. Examine under the microscope. Confluency must be at or nearly 80%. • 3. Gently remove the media (aspirate). Place 50 μL of the following formulations: • a) 6 wells with dilutor—negative control • b) 6 wells with Lipofectamine-50—positive control. • c) 6 wells with Lipofectamine-6—secondary positive control • d) 6 wells per formulations—test samples. • 4. Incubate plate for 1 hours at 37° C. • 5. Add 50 μL of MEM+20% FBS (which will become 10% upon dilution). • 6. […] Measure the absorbance of each well at 570 nm using a microplate reader. Measure the absorbance at a reference wavelength of 650 nm to subtract background absorbance. • 11. […]

Row | SMILES | Cell Viability % (Average metabolic rate over all doses, Resazurin) (HeLa cells [1]) [%] | Transfection 89 ng mRNA/well (HeLa cells [2]) | Cell Viability % (HeLa cells [3]) [%]
1 | CCCCC/C=C\C/C=C\CCCCCCCCOC(CCCCCCC/C=C\C/C=C\CCCCC)O[Si](C)(C)OCCCCCCN(C)CCO (stereo not drawn) [Example 56, (23Z,26Z)-13-((8Z,11Z)-heptadeca-8,11-dien-1-yl)-3,11,11-trimethyl-10,12,14-trioxa-3-aza-11-siladotriaconta-23,26-dien-1-ol] | 93 | 78375.2 | 40.2
2 | CCCCC/C=C\C/C=C\CCCCCCCCOC(CCCCCCC/C=C\C/C=C\CCCCC)O[Si](C)(C)OCCCCCCN1CCN(CCO)CC1 (stereo not drawn) [Example 58, 2-(4-((20Z,23Z)-10-((8Z,11Z)-heptadeca-8,11-dien-1-yl)-8,8-dimethyl-7,9,11-trioxa-8-silanonacosa-20,23-dien-1-yl)piperazin-1-yl)ethan-1-ol] | 97 | 50019.2 | 52.1
3 | CCCCC/C=C\C/C=C\CCCCCCCCOC(CCCCCCC/C=C\C/C=C\CCCCC)O[Si](C)(C)OCCCCCCN(CCO)CCO (stereo not drawn) [Example 48, (23Z,26Z)-13-((8Z,11Z)-heptadeca-8,11-dien-1-yl)-3-(2-hydroxyethyl)-11,11-dimethyl-10,12,14-trioxa-3-aza-11-siladotriaconta-23,26-dien-1-ol] | 99 | 93448.3 | 51.5
